Test results as given in PubChem BioAssay (NCI).
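Five compound concentrations were applied to cells in 96-well plates for 48 hours; endpoints were derived by simple linear interpolation of the resulting dose-response curve. Abbreviation: GI50, concentration required for 50% inhibition of growth. TGI: total growth inhibition.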

Assays:
Assay in all cases: growth of human tumour cells (NCI), 48 h
NCI-H460 lung = test system: NCI-H460 lung
RXF 393 renal = test system: RXF 393 renal
HOP-92 NSCLC = test system: HOP-92 NSCLC
SF-268 CNS = test system: SF-268 CNS
HCT-116 colon = test system: HCT-116 colon
UACC-257 melanoma = test system: UACC-257 melanoma
OVCAR-8 ovarian = test system: OVCAR-8 ovarian
SK-MEL-2 melanoma = test system: SK-MEL-2 melanoma
M14 melanoma = test system: M14 melanoma
LOX IMVI melanoma = test system: LOX IMVI melanoma
SN12C renal = test system: SN12C renal
786-0 renal = test system: 786-0 renal
EKVX NSCLC = test system: EKVX NSCLC
COLO 205 colon = test system: COLO 205 colon
UACC-62 melanoma = test system: UACC-62 melanoma
U251 CNS = test system: U251 CNS
SW-620 colon = test system: SW-620 colon
SK-OV-3 ovarian = test system: SK-OV-3 ovarian
OVCAR-5 ovarian = test system: OVCAR-5 ovarian
NCI-H522 lung = test system: NCI-H522 lung
TK-10 renal = test system: TK-10 renal
HT29 colon = test system: HT29 colon
ACHN renal = test system: ACHN renal
KM12 colon = test system: KM12 colon
CCRF-CEM leukemia = test system: CCRF-CEM leukemia
MCF7 breast = test system: MCF7 breast
HCC-2998 colon = test system: HCC-2998 colon
K-562 leukemia = test system: K-562 leukemia
OVCAR-3 ovarian = test system: OVCAR-3 ovarian
MOLT-4 leukemia = test system: MOLT-4 leukemia
NCI/ADR-RES ovarian = test system: NCI/ADR-RES ovarian
SK-MEL-5 melanoma = test system: SK-MEL-5 melanoma
HL-60(TB) leukemia = test system: HL-60(TB) leukemia
BT-549 breast = test system: BT-549 breast
NCI-H23 lung = test system: NCI-H23 lung
T-47D breast = test system: T-47D breast
DU-145 prostate = test system: DU-145 prostate
RPMI-8226 leukemia = test system: RPMI-8226 leukemia
CAKI-1 renal = test system: CAKI-1 renal
HS 578T breast = test system: HS 578T breast
PC-3 prostate = test system: PC-3 prostate
SNB-19 CNS = test system: SNB-19 CNS
UO-31 renal = test system: UO-31 renal
HCT-15 colon = test system: HCT-15 colon
SR leukemia = test system: SR leukemia
HOP-62 NSCLC = test system: HOP-62 NSCLC
IGROV1 ovarian = test system: IGROV1 ovarian
MDA-MB-435 = test system: MDA-MB-435
OVCAR-4 ovarian = test system: OVCAR-4 ovarian
SF-295 CNS = test system: SF-295 CNS
SF-539 CNS = test system: SF-539 CNS
MALME-3M melanoma = test system: MALME-3M melanoma
MDA-MB-468 breast = test system: MDA-MB-468 breast
NCI-H226 lung = test system: NCI-H226 lung
SK-MEL-28 melanoma = test system: SK-MEL-28 melanoma
A498 renal = test system: A498 renal
MDA-MB-231 breast = test system: MDA-MB-231 breast
A549 NSCLC = test system: A549 NSCLC

## COc1ccc2[nH]cc(-c3nc(N)nnc3-c3cn(C)c4ncc(Br)cc34)c2c1
NCI-H460 lung
  GI50: 382 nM
  TGI: 18000 nM
RXF 393 renal
  GI50: 244 nM
  TGI: 3890 nM
HOP-92 NSCLC
  GI50: 572 nM
  TGI: 14300 nM
SF-268 CNS
  GI50: 1580 nM
  TGI: 29600 nM
HCT-116 colon
  GI50: 373 nM
  TGI: 13800 nM
UACC-257 melanoma
  GI50: 724 nM
  TGI: 27800 nM
OVCAR-8 ovarian
  GI50: 851 nM
  TGI: 22900 nM
SK-MEL-2 melanoma
  GI50: 335 nM
  TGI: 15400 nM
M14 melanoma
  GI50: 292 nM
  TGI: 30300 nM
LOX IMVI melanoma
  GI50: 484 nM
  TGI: 20100 nM
SN12C renal
  GI50: 494 nM
  TGI: 26400 nM
786-0 renal
  GI50: 545 nM
  TGI: 22200 nM
EKVX NSCLC
  GI50: 864 nM
  TGI: > 72800 nM
COLO 205 colon
  GI50: 305 nM
  TGI: 1180 nM
UACC-62 melanoma
  GI50: 184 nM
  TGI: 13300 nM
U251 CNS
  GI50: 491 nM
  TGI: 38600 nM
SW-620 colon
  GI50: 304 nM
  TGI: > 62400 nM
SK-OV-3 ovarian
  GI50: 482 nM
  TGI: 48100 nM
OVCAR-5 ovarian
  GI50: 568 nM
  TGI: > 100000 nM
NCI-H522 lung
  GI50: 26.6 nM
  TGI: 120 nM
TK-10 renal
  GI50: 13100 nM
  TGI: 42400 nM
HT29 colon
  GI50: 317 nM
  TGI: 2550 nM
ACHN renal
  GI50: 642 nM
  TGI: 30500 nM
KM12 colon
  GI50: 241 nM
  TGI: 17500 nM
CCRF-CEM leukemia
  GI50: 379 nM
  TGI: > 84300 nM
MCF7 breast
  GI50: 75.6 nM
  TGI: 25300 nM
HCC-2998 colon
  GI50: 910 nM
  TGI: 12900 nM
K-562 leukemia
  GI50: 85 nM
  TGI: > 100000 nM
OVCAR-3 ovarian
  GI50: 250 nM
  TGI: 2660 nM
MOLT-4 leukemia
  GI50: 524 nM
  TGI: > 76700 nM
NCI/ADR-RES ovarian
  GI50: 1450 nM
  TGI: 11200 nM
SK-MEL-5 melanoma
  GI50: 233 nM
  TGI: 4050 nM
HL-60(TB) leukemia
  GI50: 168 nM
  TGI: 3910 nM
BT-549 breast
  GI50: 469 nM
  TGI: 7260 nM
NCI-H23 lung
  GI50: 461 nM
  TGI: 21700 nM
T-47D breast
  GI50: 192 nM
  TGI: 97200 nM
DU-145 prostate
  GI50: 446 nM
  TGI: > 49700 nM
RPMI-8226 leukemia
  GI50: 430 nM
  TGI: > 40800 nM
CAKI-1 renal
  GI50: 342 nM
  TGI: > 50800 nM
HS 578T breast
  GI50: 319 nM
  TGI: > 78300 nM
PC-3 prostate
  GI50: 311 nM
  TGI: > 60100 nM
SNB-19 CNS
  GI50: 738 nM
  TGI: > 100000 nM
UO-31 renal
  GI50: 717 nM
  TGI: 20300 nM
HCT-15 colon
  GI50: 354 nM
  TGI: 21400 nM
SR leukemia
  GI50: 69.3 nM
  TGI: > 100000 nM
HOP-62 NSCLC
  GI50: 547 nM
  TGI: > 76900 nM
IGROV1 ovarian
  GI50: 923 nM
  TGI: 25000 nM
MDA-MB-435
  GI50: 37.9 nM
  TGI: 205 nM
OVCAR-4 ovarian
  GI50: 1440 nM
  TGI: > 95500 nM
SF-295 CNS
  GI50: 230 nM
  TGI: 10300 nM
SF-539 CNS
  GI50: 255 nM
  TGI: 844 nM
MALME-3M melanoma
  GI50: 335 nM
  TGI: 23000 nM
MDA-MB-468 breast
  GI50: 30.1 nM
  TGI: 631 nM
NCI-H226 lung
  GI50: 676 nM
  TGI: 9150 nM
SK-MEL-28 melanoma
  GI50: 966 nM
  TGI: 34400 nM
A498 renal
  GI50: 12600 nM
  TGI: 48100 nM
MDA-MB-231 breast
  GI50: 882 nM
  TGI: 48600 nM
A549 NSCLC
  GI50: 769 nM
  TGI: > 95300 nM
